Test system: Mycobacterium tuberculosis
Assay: The compound was tested for its ability to inhibit the growth of Mycobacterium tuberculosis strain H6/99; Resistant
Type: functional, organism-based

SMILES	MIC
NNC(=O)c1ccncc1	Resistant
CO[C@H]1/C=C/O[C@@]2(C)Oc3c(C)c(O)c4c(O)c(c(/C=N/N5CCN(C)CC5)c(O)c4c3C2=O)NC(=O)/C(C)=C\C=C\[C@H](C)[C@H](O)[C@@H](C)[C@@H](O)[C@@H](C)[C@H](OC(C)=O)[C@@H]1C	Resistant

Reference: ChEMBL document CHEMBL1132871, “Antimycobacterial activity of ionic fullerene derivatives” (Bioorg Med Chem Lett, 2000)
